Measured values reported in patent publication US9416181B2, “Compositions for cell culture and methods of using the same” (AbbVie Inc., priority 2013, dated 2016).

Legend:
[1] = test system: Cell Line 1 (CHO) expressing Antibody 1; experiment: Acidic species variants (WCX-10) of Antibody 1, Cell Line 1 shake flask fed-batch culture; type: cell-based, Chinese Hamster; details: shaker; for reduction of total acidic species content, absolute value: vs unsupplemented control
Procedure: A recombinant Chinese Hamster Ovary (CHO) cell line (Cell Line 1) expressing a humanized monoclonal antibody (Antibody 1) was evaluated in 2 different cultures vessels (shaker flasks and 3 L laboratory-scale bioreactors). The cell line was of CHO DUX-B11 origin based on a DHFR (dihydrofolate reductase) expression system and cultured in a chemically defined basal media, and fed periodically with a chemically-defined feed media (CDFM). The media utilized throughout all of the experiments were chemically-defined, and both animal-component free, and protein-free. Each of the respective media were supplemented as needed with selected bioflavonoids to evaluate for their potential impact on the resulting acidic species profile. In preparation of the cultures, the cell lines were serially expanded through separate seed train inoculums to generate enough cells for inoculation. Process conditions utilized during the cultures were slightly different depending on the culture scale, but similar within each scale to the respective non-bioflavonoid supplemented control conditions. All bioflavonoids utilized were purchased from Sigma-Aldrich (St. Louis, Mo.).
Samples were analyzed using an HPLC system equipped with a ProPac WCX-10 analytical column (Thermo Scientific, Sunnyvale, Calif.). Approximately 100 μg of sample was loaded in 6% Buffer B (10 mM sodium phosphate, 500 mM NaCl, pH 5.5) and 94% Buffer A (10 mM sodium phosphate, pH 7.5). The column was run at a flow rate of 1.0 mL/min. The protein was eluted from the column by increasing the buffer B composition from 6% to 16% over 20 minutes. The protein peaks were measured using UV absorbance at 280 nm as the peaks eluted from the column. The column was regenerated using 100% buffer B followed be a re-equilibration period using initial condition before the injection of the next sample. Peaks eluting before the main peak were termed “acidic peaks” and peaks eluting after the main peak were called “basic peaks” (FIG. 2).
In this Example, EGCG was added into the feed (cell culture medium) at the concentration range of 5 mg/L (low), 20 mg/L (mid) and 50 mg/L (high) in a shaker experiment to determine the impact of EGCG on product quality of a humanized monoclonal antibody (Antibody 1). Detailed cell culture conditions are as described in Table 1.
However, it was not clear whether or not additional bioflavonoids would also have the same effects. To evaluate the impact of alternative bioflavonoids, fed-batch shake flask cultures were initiated with CDFM supplemented with 3 different concentrations of genistein, rutin, and naringin, in addition to EGCG. Cell growth, viability, as well as titers and acidic species variants were measured.
Charge Heterogeneity via Weak Cation Exchange Chromatography-Samples were analyzed using an HPLC system equipped with a ProPac WCX-10 analytical column (Thermo Scientific, Sunnyvale, Calif.). Approximately 100 μg of sample was loaded in 6% Buffer B (10 mM sodium phosphate, 500 mM NaCl, pH 5.5) and 94% Buffer A (10 mM sodium phosphate, pH 7.5). The column was run at a flow rate of 1.0 mL/min. The protein was eluted from the column by increasing the buffer B composition from 6% to 16% over 20 minutes. The protein peaks were measured using UV absorbance at 280 nm as the peaks eluted from the column. The column was regenerated using 100% buffer B followed be a re-equilibration period using initial condition before the injection of the next sample. Peaks eluting before the main peak were termed ‘acidic peaks’ and peaks eluting after the main peak were called ‘basic peaks’ (FIG. 2).
To evaluate the impact of other bioflavonoids, fed-batch shake flask cultures were initiated with CDFM supplemented with multiple concentrations of rutin. Cell growth, viability, as well as titers and acidic species variants were measured and shown in FIGS. 14 and 15, respectively.

[2] = test system: Cell Line 2 (CHO) expressing Antibody 2; experiment: Cell culture performance, Cell Line 2 shake flask culture; type: cell-based, Chinese Hamster; details: shaker
Procedure: Four different recombinant Chinese Hamster Ovary (CHO) cell lines expressing four different recombinant glycoproteins were evaluated in either shaker flask culture, or 3 L laboratory scale bioreactors. Cell Line 1 was genetically engineered to express Antibody 1, Cell Line 2 was genetically engineered to express Antibody 2, Cell Line 3 was genetically engineered to express dual variable domain immunoglobulin 1 (DVD1) and Cell Line 4 was genetically engineered to express dual variable domain immunoglobulin 2 (DVD2).
DVD1 and DVD2 were immunoglobulins with two variable domains as documented previously. See Wu et al. (2007). Antibody 1 and Antibody 2 were both IgG1 glycoproteins. All four cell lines were of CHO DUX-B11 origin based on a dhfr (dihydrofolate reductase) expression system and cultured in chemically defined basal medias (CDBM), and fed periodically with chemically-defined feed media (CDFM). All media utilized throughout all of the experiments were chemically-defined, free of animal-component, and protein-free. […]
Viable cell density (VCD) and cell viability values were measured through trypan blue exclusion via Cedex automated cell counters (Roche Applied Science, Indianapolis, Ind.), glucose and lactate values were measured with a ABL-805 (Radiometer Medical, Denmark) blood gas analyzer. […] Osmolality was measured as needed on a Multi-Osmette 2430 osmometer (Precision Systems, Natick, Mass.).
Protein A Affinity Chromatography-Antibody titers were measured from crude cell culture harvests on a Poros ATM (Life Technologies, Carlsbad, Calif.) affinity column using an HPLC system operating with a low pH, step elution gradient with detection at 280 nm. […]
To further evaluate the impact of EGCG on acidic region variants, Antibody 2 and dual variable domain immunoglobulin 1 (DVD1) were examined. Antibody 2 was evaluated in a set of shaker and lab-scale bioreactor experiments with two feed amounts (100% and 50%) as unsupplemented control conditions. […]

[3] = test system: Cell Line 3 (CHO) expressing DVD1; experiment: Cell culture performance, Cell Line 3 shake flask culture; details: shaker

Structure (SMILES): O=C(O[C@@H]1Cc2c(O)cc(O)cc2O[C@@H]1c1cc(O)c(O)c(O)c1)c1cc(O)c(O)c(O)c1 [EGCG, epigallocatechin gallate]
- reduction of total acidic species content, relative value ([1]; 5 mg/L in feed): 5%
- reduction of total acidic species content, absolute value ([1]; 5 mg/L in feed): 1%
- reduction of total acidic species content, relative value ([1]; 20 mg/L in feed): 10%
- reduction of total acidic species content, absolute value ([1]; 20 mg/L in feed): 2%
- reduction of total acidic species content, relative value ([1]; 50 mg/L in feed): 35%
- reduction of total acidic species content, absolute value ([1]; 50 mg/L in feed): 7%
- impact on cell culture performance (cell growth, viability, titer) ([2]; 0.05 and 0.1 g/L in feed): no negative impact on cell culture performance
- fold of the average titer of the unsupplemented control conditions ([2]; 0.1 g/L in 100% feed): 1.22 fold
- fold of the average titer of the unsupplemented control conditions ([2]; equivalent of 0.1 g/L in 50% feed): 1.11 fold
- growth profile, viability and productivity vs control ([3]; 0.02, 0.05 and 0.1 g/L in feed): performed very similarly to control cultures
- viability decrease compared to control ([3]; 0.2 g/L in feed): 15%
